One series has as its system postnasal drip. In words: Treatment of postnasal drip: nasal spray delivered into the nasal cavity, patient responses evaluated. Format: in vivo, human. To be noted: 34 μg/spray diphenhydramine in combination with an anticholinergic and a glucocorticosteroid (mometasone furoate 1.7 mg/5 mL, ipratropium bromide 1 mg/5 mL, diphenhydramine 1.7 mg/5 mL); two sprays to each nostril daily; evaluated after 4 to 6 weeks.

Series [1] can be described thus: Sedation / patient tolerance of the nasal spray in use. The class given is in vivo, human. To be noted: 34 micrograms/spray (or 69 μg daily) to each nostril, triple combination nasal spray; 15,000 units dispensed. The procedure:
A specially configured nasal atomizer having a large aerosol plume and a three inch stem was used to bypass the nasal valve area and deliver medication into the nasal cavity. Two sprays were administered to each nostril daily. Patient responses were evaluated after 4 to 6 weeks.
34 micrograms/spray (or 69 μg daily) to each nostril is […] less than the lowest dose (12.5 milligrams) of oral diphenhydramine.

Experimental for postnasal drip: A composition including mometasone furoate (1.7 mg/5 mL), ipratropium bromide (1 mg/5 mL), and diphenhydramine (1.7 mg/5 mL) was prepared. A specially configured nasal atomizer having a large aerosol plume and a three inch stem was used to bypass the nasal valve area and deliver medication into the nasal cavity. Two sprays were administered to each nostril daily. Patient responses were evaluated after 4 to 6 weeks.

For the compound `CN(C)CCOC(c1ccccc1)c1ccccc1` [Diphenhydramine, diphenhydramine], the arresting postnasal drip entry in the series with postnasal drip is given as “effective”. Besides, the sedation entry in series [1] is “sedation has not been an issue”.

(Values after patent US20190269703A1, “MATERIALS AND METHODS FOR TREATING CHRONIC COUGH” (Mayo Foundation for Medical Education and Research, priority 2016, published 2019).)
